Test results as given in publication PMC8372460 (European Journal of Medicinal Chemistry, 2021).
Like-named read-outs stand apart in the source and are kept apart here.

Key:
[1] = target: SARS-CoV-2 M^pro (Severe acute respiratory syndrome coronavirus 2, UniProt P0DTD1); type: biochemical
[2] = test system: human normal fibroblast HFF-1 cells; test: In vitro cytotoxicity evaluation, MTT assay; type: cell-based; settings: read-out: IC50 values towards HFF-1 cells, 48 h
[3] = test system: Vero E6 cells; settings: under tested concentrations
[4] = Balb/C mice, 100 mg/kg, p.o., 10 times in 20 days
[5] = patients with hypoprothrombinemia, doses from 1 to 200 mg; cited from earlier work
[6] = concentrations ranging from 100 μg/mL to 10 ng/mL; cited from earlier work
[7] = test system: normal peripheral blood mononuclear cells; settings: cited from earlier work
[8] = test system: latent HIV-1; settings: bcl-2-transduced primary CD4+ T cell model; cited from earlier work
[9] = test system: Vesicular Stomatitis Virus; settings: cited from earlier work

O=C1C=C(O)C(=O)c2ccccc21 [Compound 7, 2-hydroxy-1,4-naphthoquione]
inhibitory effect towards M^pro (in words) ([1]; 10 μM): did not exhibit any detectable inhibition

Cc1cc(O)c2c(c1)C(=O)C=CC2=O [Compound 16, 7-Methyl juglone]
IC50 [2]: < 5 µM
Mpro inhibition rate at different conc. (%) 0.1 μM [1]: 21.7%
Mpro inhibition rate at different conc. (%) 1 μM [1]: 99.6%
inhibitory effect towards M^pro (in words) [1]: completely loss of the hydrolytic efficacy

CC1=CC(=O)c2c(O)cccc2C1=O [Compound 17, Plumbagin]
inhibitory effect towards M^pro (in words) ([1]; 10 μM): inactive

COc1cccc2c1C(=O)C(C(C)=O)=CC2=O [Compound 15, 2-acetyl-8-methoxy-1,4-naphthoquinone]
toxicity towards host Vero E6 cells (in words) [3]: non-toxic
animal deaths [4]: no animal deaths
body weight change compared with control animals [4]: minor body weight loss
toxicity symptoms (reduced activity, hypothermia, body shivering) ([4]; every other day): did not show any obvious toxicity symptoms

COc1cc(C)cc2c1C(=O)C=CC2=O [Compound 22, 7-methyl juglone methyl ether]
inhibitory effect towards M^pro (in words) [1]: did not show any inhibitory effects

CC1=CC(=O)c2ccccc2C1=O [Compound 3, 2-Methyl-1,4-naphthoquinone, reference compound]
inhibitory effect towards M^pro (in words) ([1]; 10 μM): inactive
toxic effects in patients [5]: no toxic effects were observed

CC(C)=CC[C@@H](O)C1=CC(=O)c2c(O)ccc(O)c2C1=O [Compound 1, shikonin, reference compound]
cytotoxic effects in vitro [6]: significant cytotoxic effects
inhibitory effect towards M^pro (in words) ([1]; 10 μM): moderate inhibitory effects

O=C1C=CC(=O)c2c(O)cccc21 [Compound 2, juglone]
IC50, cytotoxicity against normal peripheral blood mononuclear cells [7]: more than 5 μg/mL
reactivation of latent HIV-1 [8]: potently reactivate latent HIV-1
IC50 [2]: < 5 µM
activity against Vesicular Stomatitis Virus [9]: active
inhibitory effect towards M^pro (in words) ([1]; 1 μM): completely inactivated the main protease
inhibitory effect towards M^pro (in words) ([1]; 10 μM): completely loss of the hydrolytic efficacy
